Earlier results in patent US20190125725A1, “PHARMACEUTICAL COMPOSITIONS COMPRISING BRIVARACETAM” (Jubilant Generics Limited, priority 2016, published 2019).

Conditions: High solubility and permeability

CCC[C@@H]1CC(=O)N([C@@H](CC)C(N)=O)C1 [Brivaracetam, (2S)-2-[(4R)-2-oxo-4-propyltetrahydro-1H-pyrrol-1-yl] butanamide]
Biopharmaceutics Classification System class: class I
